Read-outs that look alike come from different tables or passages of the source.

The target in this experiment is T1, SFRP-1 (Homo sapiens, UniProt Q8N474).
T1 sequence (Q8N474 32-314): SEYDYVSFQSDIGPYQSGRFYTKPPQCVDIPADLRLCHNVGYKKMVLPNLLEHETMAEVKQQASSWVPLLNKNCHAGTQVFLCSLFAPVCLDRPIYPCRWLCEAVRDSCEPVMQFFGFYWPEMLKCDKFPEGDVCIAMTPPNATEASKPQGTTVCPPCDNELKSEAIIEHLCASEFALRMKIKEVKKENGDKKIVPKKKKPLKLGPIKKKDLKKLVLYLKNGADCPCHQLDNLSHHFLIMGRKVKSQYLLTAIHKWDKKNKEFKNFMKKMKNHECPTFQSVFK
Description: Cell-based assay for in vitro measurement of SFRP-1/SARP2 antagonist activity (U2OS cells co-transfected with 16x TCF-tk-Luciferase reporter, Wnt and hSFRP-1).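 Also: U2OS cells co-transfected with a TCF-tk luciferase reporter, a Wnt vector, hSFRP-1 or empty vector and CMV-βgal, luciferase luminescence read in cell lysates alongside βgal activity.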 The conditions noted are these: U2OS.

Where [1] appears, read: read-out: Fold Induction with SFRP-1, Conc 15 μM, with SFRP-1, fold induction over SFRP-1 control, single dose.
[2] abbreviates: read-out: Fold Induction without SFRP-1, Conc 15 μM, without SFRP-1, single dose.

In the case of `Cc1ccc(S(=O)(=O)c2ccc(N3CCCC3)cc2)cc1S(=O)(=O)NCCCn1ccnc1` [Example 305, N-[3-(1H-imidazol-1-yl)propyl]-2-methyl-5-[(4-pyrrolidin-1-ylphenyl)sulfonyl]benzenesulfonamide], the fold induction at 15 µM runs as follows: under setting [1], 1.8; under setting [2], 1.

Turning to `Cc1ccc(S(=O)(=O)NCCCn2ccnc2)cc1[S+]([O-])c1ccccc1` (stereo not shown) [Example 306, N-[3-(1H-imidazol-1-yl)propyl]-4-methyl-3-(phenylsulfinyl)benzenesulfonamide], the fold induction at 60 µM by setting is: (read-out: Fold Induction with SFRP-1, Conc 60 μM, with SFRP-1, fold induction over SFRP-1 control, single dose) 1.3; (read-out: Fold Induction without SFRP-1, Conc 60 μM, without SFRP-1, single dose) 0.9.

`Cc1ccc(S(=O)(=O)c2ccc(F)cc2)cc1S(=O)(=O)NCCn1ccnc1` [Example 307, 5-[(4-fluorophenyl)sulfonyl]-N-[2-(1H-imidazol-1-yl)ethyl]-2-methylbenzenesulfonamide]: the fold induction at 15 µM runs as follows: under setting [1], 2.5; under setting [2], 0.9.

In the case of `Cc1ccc(S(=O)(=O)c2ccc(F)cc2)cc1S(=O)(=O)NC1CCOCC1` [Example 308, 5-[(4-fluorophenyl)sulfonyl]-2-methyl-N-tetrahydro-2H-pyran-4-ylbenzenesulfonamide], the fold induction at 15 µM under setting [1] was determined as 2.3 and the fold induction at 15 µM under setting [2] worked out at 0.9.

Regarding `Cc1ccc(S(=O)(=O)c2ccc(F)cc2)cc1S(=O)(=O)NCCC1CCOCC1` [Example 309, 5-[(4-fluorophenyl)sulfonyl]-2-methyl-N-(2-tetrahydro-2H-pyran-4-ylethyl)benzenesulfonamide], the fold induction at 15 µM by setting is: under setting [1], 1.9; under setting [2], 0.9.

As for `Cc1ccc(S(=O)(=O)c2ccc(N3CCCCC3)cc2)cc1S(=O)(=O)NCCCn1ccnc1` [Example 312, N-[3-(1H-imidazol-1-yl)propyl]-2-methyl-5-[(4-piperidin-1-ylphenyl)sulfonyl]benzenesulfonamide], the fold induction at 15 µM was determined as 1.6 under setting [1] and 0.9 under setting [2].

Regarding `COc1ccc(S(=O)(=O)c2ccc(C)c(S(=O)(=O)NCCCn3ccnc3)c2)cc1` [Example 315, N-[3-(1H-imidazol-1-yl)propyl]-5-[(4-methoxyphenyl)sulfonyl]-2-methylbenzenesulfonamide], the fold induction at 15 µM is, setting by setting: under setting [1], 1.8; under setting [2], 1.3.

In the case of `COc1ccccc1S(=O)(=O)c1ccc(C)c(S(=O)(=O)NCCCn2ccnc2)c1` [Example 316, N-[3-(1H-imidazol-1-yl)propyl]-5-[(2-methoxyphenyl)sulfonyl]-2-methylbenzenesulfonamide], the fold induction at 15 µM runs as follows: under setting [1], 2.5; under setting [2], 1.1.

For `Cc1ccc(S(=O)(=O)NCCCn2ccnc2)cc1S(=O)(=O)c1ccccc1` [Example 317, N-[3-(1H-imidazol-1-yl)propyl]-4-methyl-3-(phenylsulfonyl)benzenesulfonamide], the fold induction at 15 µM is, setting by setting: under setting [1], 1.2; under setting [2], 1.1.

In the case of `COc1cccc(S(=O)(=O)c2ccc(C)c(S(=O)(=O)NCCCn3ccnc3)c2)c1` [Example 323, N-[3-(1H-imidazol-1-yl)propyl]-5-[(3-methoxyphenyl)sulfonyl]-2-methylbenzenesulfonamide], the fold induction at 15 µM reads like this: under setting [1], 2.6; under setting [2], 0.9.

`Cc1cc(C)c(S(=O)(=O)c2ccccc2)cc1S(=O)(=O)NCCCn1ccnc1` [Example 325, N-[3-(1H-imidazol-1-yl)propyl]-2,4-dimethyl-5-(phenylsulfonyl)benzenesulfonamide]: the fold induction at 15 µM by setting is: under setting [1], 3; under setting [2], 1.1.

Turning to `Cc1cc(C)c(S(=O)(=O)c2ccccc2)cc1S(=O)(=O)NCCc1ccccn1` [Example 326, 2,4-dimethyl-5-(phenylsulfonyl)-N-(2-pyridin-2-ylethyl)benzenesulfonamide], the fold induction at 15 µM runs as follows: under setting [1], 2.4; under setting [2], 1.

Regarding `Cc1cc(C)c(S(=O)(=O)c2ccccc2)cc1S(=O)(=O)NC1CCOCC1` [Example 327, 2,4-dimethyl-5-(phenylsulfonyl)-N-tetrahydro-2H-pyran-4-ylbenzenesulfonamide], the fold induction at 15 µM is, setting by setting: under setting [1], 2.7; under setting [2], 1.

As to `Cc1cc(C)c(S(=O)(=O)c2ccc(F)cc2)cc1S(=O)(=O)NCCCn1ccnc1` [Example 330, 5-[(4-fluorophenyl)sulfonyl]-N-[3-(1H-imidazol-1-yl)propyl]-2,4-dimethylbenzenesulfonamide], the fold induction at 15 µM runs as follows: under setting [1], 3.2; under setting [2], 1.1.

As to `Cc1cc(C)c(S(=O)(=O)c2ccc(F)cc2)cc1S(=O)(=O)NCCc1ccccn1` [Example 331, 5-[(4-fluorophenyl)sulfonyl]-2,4-dimethyl-N-(2-pyridin-2-ylethyl)benzenesulfonamide], the fold induction at 15 µM under setting [1] was determined as 2.3 and the fold induction at 15 µM under setting [2] is 1.1.

For the compound `Cc1cc(C)c(S(=O)(=O)c2ccc(F)cc2)cc1S(=O)(=O)NC1CCOCC1` [Example 332, 5-[(4-fluorophenyl)sulfonyl]-2,4-dimethyl-N-(tetrahydro-2H-pyran-4-yl)benzenesulfonamide], the fold induction at 15 µM is, setting by setting: under setting [1], 3; under setting [2], 1.

For the compound `Cc1cc(C)c(S(=O)(=O)c2ccc(F)cc2)cc1S(=O)(=O)NCCC1CCOCC1` [Example 333, 5-[(4-fluorophenyl)sulfonyl]-2,4-dimethyl-N-[2-(tetrahydro-2H-pyran-4-yl)ethyl]benzenesulfonamide], the fold induction at 15 µM is, setting by setting: under setting [1], 1.7; under setting [2], 1.

`O=S(=O)(NCCc1ccccc1)c1cc(S(=O)(=O)c2ccccc2)ccc1Cl` [Example 334, 2-chloro-N-(2-phenylethyl)-5-(phenylsulfonyl)benzenesulfonamide]: the fold induction at 15 µM runs as follows: under setting [1], 1.5; under setting [2], 1.2.

`O=S(=O)(NCCN1CCOCC1)c1cc(S(=O)(=O)c2ccccc2)ccc1Cl` [Example 335, 2-chloro-N-(2-morpholin-4-ylethyl)-5-(phenylsulfonyl)benzenesulfonamide]: the fold induction at 15 µM by setting is: under setting [1], 2.2; under setting [2], 1.

For `O=S(=O)(NCCCn1ccnc1)c1cc(S(=O)(=O)c2ccccc2)ccc1Cl` [Example 336, 2-chloro-N-[3-(1H-imidazol-1-yl)propyl]-5-(phenylsulfonyl)benzenesulfonamide], the fold induction at 15 µM under setting [1] was 2.8 and the fold induction at 15 µM under setting [2] came to 1.

Regarding `O=S(=O)(NCCc1ccccn1)c1cc(S(=O)(=O)c2ccccc2)ccc1Cl` [Example 337, 2-chloro-5-(phenylsulfonyl)-N-(2-pyridin-2-ylethyl)benzenesulfonamide], the fold induction at 15 µM stood at 2.6 under setting [1] and 1.1 under setting [2].

On to `Cc1ccc(S(=O)(=O)c2ccc(C(C)C)cc2)cc1S(=O)(=O)NCCCn1ccnc1` [Example 338, N-[3-(1H-imidazol-1-yl)propyl]-5-[(4-isopropylphenyl)sulfonyl]-2-methylbenzenesulfonamide], for which the fold induction at 15 µM was found to be 1.2 under setting [1] and 1 under setting [2].

Consider `Cc1ccc(S(=O)(=O)c2ccc3ccccc3c2)cc1S(=O)(=O)NCCCn1ccnc1` [Example 339, N-[3-(1H-imidazol-1-yl)propyl]-2-methyl-5-(2-naphthylsulfonyl)benzenesulfonamide], for which the fold induction at 15 µM under setting [1] was 2.6 and the fold induction at 15 µM under setting [2] was determined as 1.1.

Values taken from patent publication US20060276464A1, “Diarylsulfone sulfonamides and use thereof” (Wyeth, priority 2005, published 2006).
